Assays:
Assay type in all cases: in vivo
Matricaria inodora = assay: Post-emergence herbicidal action against weed plants; details: dose 80 g a.c./ha, scored after 3 to 4 weeks
Method: (§1) [table] 2. Post-Emergence Herbicidal Action Against Weed Plants Seeds of monocotyledonous and dicotyledonous weed plants are set out in cardboard pots in sandy loam soil, covered with soil, and cultivated under glass under good growth conditions. Two to three weeks after sowing, the trial plants are treated at the three-leaf stage. The compounds according to the invention, formulated as wettable powders or as emulsifiable concentrates, are sprayed onto the surface of the green parts of the plants, at a water application rate of 600 to 800 I/ha (converted). After the trial plants have stood for 3 to 4 weeks under optimum growth conditions under glass, the action of the compounds according to the invention is scored in comparison to compounds disclosed in the prior art.

Avena fatua = assay: Pre-emergence herbicidal action against weed plants; details: dose 80 g a.c./ha, scored after 3 to 4 weeks
Source text: (§2) Seeds or rhizome sections of mono- and dicotyledonous weed plants are set out in pots of 9 to 13 cm in diameter, in sandy loam soil, and are covered with soil. The herbicides, formulated as emulsifiable concentrates or dusts, are applied to the surface of the covering earth in the form of aqueous dispersions or suspensions or emulsions, at a water application rate of 300 to 800 I/ha (converted) in different doses. The pots are then maintained under glass under optimum conditions for the further cultivation of the plants. After 3 to 4 weeks under optimum growth conditions under glass, the trial plants are scored for the effect of the compounds according to the invention in comparison to compounds disclosed in the prior art. […] [table]

Cyperus serotinus = assay: as above; details: scored after 3 to 4 weeks
Source text: as §2

Viola tricolor [1] = assay: as above; details: scored after 3 to 4 weeks
Source text: as §2

Amaranthus retroflexus = assay: Post-emergence herbicidal action against weed plants; details: dose 320 g a.c./ha, scored after 3 to 4 weeks
Method: as §1

Viola tricolor [2] = assay: as above; details: dose 320 g a.c./ha, scored after 3 to 4 weeks
Method: as §1

Alopecurus myosuroides = assay: Pre-emergence herbicidal action against weed plants; details: dose 320 g a.c./ha, scored after 3 to 4 weeks
Source text: as §2

Setaria viridis = assay: Post-emergence herbicidal action against weed plants; details: dose 80 g a.c./ha, scored after 3 to 4 weeks
Method: as §1

With Cc1c(C(=O)c2cnn(C)c2O)ccc(C(F)(F)F)c1S(C)(=O)=O [1-4, known from WO 2008/125214] as the molecule, how does the “Herbicidal action against MATIN” value (Matricaria inodora) read?
Its value is 50%.

Cc1c(C(=O)c2cnn(C)c2O)ccc(C(F)(F)F)c1[S+](C)[O-] (centres unmarked) [1-9, known from WO 2008/125214] was tested. Which “Herbicidal action against AVEFA” value (Avena fatua) did it give?
The value was 40%.

What about the “Herbicidal action against CYPES” value (Cyperus serotinus; dose 80 g a.c./ha) of the same molecule?
Its value is 50%.

What about the “Herbicidal action against VIOTR” value (Viola tricolor [1]; dose 80 g a.c./ha) of the same molecule?
The value was 60%.

Which results are given for Cc1c(C(=O)c2cnn(C)c2O)ccc(C(F)(F)C(F)(F)F)c1[S+](C)[O-] (centres unmarked) [1-153]?
Herbicidal action against AVEFA (Avena fatua): 70%; Herbicidal action against CYPES (Cyperus serotinus; dose 80 g a.c./ha): 100%; Herbicidal action against VIOTR (Viola tricolor [1]; dose 80 g a.c./ha): 90%

How did the “Herbicidal action against MATIN” value (Matricaria inodora) turn out when Cc1c(C(=O)c2cnn(C)c2O)ccc(C(F)(F)C(F)(F)F)c1S(C)(=O)=O [1-161] was run?
Its value is 100%.

Which results are given for Cc1nn(C)c(O)c1C(=O)c1ccc(C(F)(F)F)c([S+](C)[O-])c1C (centres unmarked) [3-9, known from WO 2008/125214]?
Herbicidal action against VIOTR (Viola tricolor [1]; dose 320 g a.c./ha): 40%; Herbicidal action against AMARE (Amaranthus retroflexus): 50%; Herbicidal action against VIOTR (Viola tricolor [2]): 40%

Cc1nn(C)c(O)c1C(=O)c1ccc(C(F)(F)F)c(S(C)(=O)=O)c1C [3-17, known from WO 2008/125214] was tested. Which “Herbicidal action against CYPES” value (Cyperus serotinus; dose 320 g a.c./ha) did it give?
Its value is 50%.

What about the “Herbicidal action against ALOMY” value (Alopecurus myosuroides) of the same molecule?
The value was 50%.

And the “Herbicidal action against SETVI” value (Setaria viridis)?
Its value is 60%.

With Cc1nn(C)c(O)c1C(=O)c1ccc(C(F)(F)C(F)(F)F)c([S+](C)[O-])c1C (centres unmarked) [3-153] as the molecule, how does the “Herbicidal action against VIOTR” value (Viola tricolor [1]; dose 320 g a.c./ha) read?
Its value is 90%.

What about the “Herbicidal action against AMARE” value (Amaranthus retroflexus) of the same molecule?
Its value is 80%.

And the “Herbicidal action against VIOTR” value (Viola tricolor [2])?
The value was 80%.

Which results are given for Cc1nn(C)c(O)c1C(=O)c1ccc(C(F)(F)C(F)(F)F)c(S(C)(=O)=O)c1C [3-161]?
Herbicidal action against CYPES (Cyperus serotinus; dose 320 g a.c./ha): 80%; Herbicidal action against ALOMY (Alopecurus myosuroides): 90%; Herbicidal action against SETVI (Setaria viridis): 100%
